The values below are quoted from earlier work in PMC12506672, “A phase I study of HEC73543, an oral FLT3 inhibitor: the effect of food on pharmacokinetics after oral dosing in healthy Chinese volunteers” (Frontiers in Pharmacology, 2025).

The subject of data set [1] is FLT3-ITD–positive leukemia samples. Also noted: method as in Cucchi et al., 2018. The note with it: ex vivo, especially high allelic ratio (AR ≥ 0.5); ref Cucchi et al., 2018.
On the set-up of data set [2]: method as in James et al., 2020. Conditions: high-fat meal, healthy subjects; ref James et al., 2020.
On the set-up of data set [3]: method as in Kim, 2017. Conditions: standard or high-fat meal compared to fasting; ref Kim, 2017.

In the case of `CCc1nc(C(N)=O)c(Nc2ccc(N3CCC(N4CCN(C)CC4)CC3)c(OC)c2)nc1NC1CCOCC1` [gilteritinib], in data set [1], the colony-forming capacity entry is reported as “markedly suppresses”. In data set [2], the “GLSM ratio (fed/fasted %) for AUC0–t” value is listed as 94.6%, the “GLSM ratio (fed/fasted %) for AUC0–∞” value is 93.8%, the “GLSM ratio (fed/fasted %) for AUC72” value was 91.0% and the “GLSM ratio (fed/fasted %) for Cmax” value was 74.0%.

Take `CO[C@@H]1[C@H](N(C)C(=O)c2ccccc2)C[C@H]2O[C@]1(C)n1c3ccccc3c3c4c(c5c6ccccc6n2c5c31)C(=O)NC4` [midostaurin]: in data set [3], the “delay of Tmax with food” value is 2.5 to 3 h, the “increase of AUC exposure with food” value is on record as 1.2- to 1.6 fold and the “lowering of Cmax with food” value is recorded as 20%–27%.
